Our source for the AC50 values is patent US12606541B2, “PPARg modulators and methods of use” (Eisai R&D Management Co., Ltd., priority 2020, dated 2026).

One assay has as its target T1, His6-TEV-PPARγ-(234-505) (Homo sapiens, UniProt P37231).
T1 construct: The His6-TEV-PPARγ-(234-505) protein for assay was expressed and purified; TEV cleavage site (N); made in house
T1 sequence (P37231 234-505): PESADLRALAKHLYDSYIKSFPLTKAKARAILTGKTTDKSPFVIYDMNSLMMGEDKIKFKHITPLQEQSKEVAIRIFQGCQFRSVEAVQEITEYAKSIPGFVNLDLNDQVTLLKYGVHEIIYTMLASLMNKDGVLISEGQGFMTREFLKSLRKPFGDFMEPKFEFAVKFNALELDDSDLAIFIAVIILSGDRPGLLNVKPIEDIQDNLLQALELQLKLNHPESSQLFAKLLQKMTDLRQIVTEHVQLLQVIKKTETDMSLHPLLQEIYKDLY
As to the kind of experiment: TR-FRET Assay to Measure Co-R Peptide Recruitment to PPARγ. The class given is biochemical. To be noted: Co-R peptide recruitment to PPARγ; read-out: TR-FRET AC50. As to the method: TR-FRET Assay to Measure Co—R Peptide Recruitment to PPARγ
The 2× detection solution contained anti-6×His-Terbium antibody (CisBio) and FITC labeled Co—R peptide (SMRT-ID2 from New England Peptide) at final concentrations of 5 and 200 nM respectively.
In these assay plates, the positive control in column 24 contained 500 nM (final) T0070907 and the negative control in column 23 contained an identical volume of DMSO. Then, 5 μL of 2+ protein working stock or controls were added to the plate and incubated for 20 minutes at room temperature. Reagents additions were performed with either a Combi (Thermo) or Mantis (Formulatory) pipetting device. The incubation was followed by addition of 5 μL of the 2× detection solution. Plates were covered, centrifuged, and incubated for an additional hour. The TR-FRET data was recorded with an Envision plate reader (Perkin Elmer), using settings recommended by Thermo Fisher. The TR-FRET signal of the positive and negative control's recruitment of FITC-Co—R peptide was used to normalize the TR-FRET signal to percent response and to determine the assay Z prime. Experiments were performed in triplicate and analyzed in GraphPad Prism 7.
With `C[C@@H](CNC(=O)C1CCN(C(=O)c2cc(-c3ccncc3)[nH]n2)CC1)c1ccccc1` [N-[(2R)-2-phenylpropyl]-1-[5-(pyridin-4-yl)-1H-pyrazole-3-carbonyl]piperidine-4-carboxamide], the AC50 is more than 1000 nM.

Turning to `COc1cc(-c2cc(C(=O)N3CCC(C(=O)NCc4ccc5nncn5c4)CC3)n[nH]2)c(Cl)cn1` [1-[5-(5-chloro-2-methoxypyridin-4-yl)-1H-pyrazole-3-carbonyl]-N-({[1,2,4]triazolo[4,3-a]pyridin-6-yl}methyl)piperidine-4-carboxamide], the concentration at half-maximal activity (AC50) is more than 1000 nM.

Regarding `Cc1nc(CNC(=O)C2CCN(C(=O)c3cc(-c4ccncc4)[nH]n3)CC2)no1` [N-[(5-methyl-1,2,4-oxadiazol-3-yl)methyl]-1-[5-(pyridin-4-yl)-1H-pyrazole-3-carbonyl]piperidine-4-carboxamide], the AC50 is more than 1000 nM.

In the case of `CC(C)Oc1cc(-c2cc(C(=O)N3CCC(C(=O)N[C@H]4CC[C@@](O)(C(F)(F)F)CC4)CC34CC4)n[nH]2)c(F)cn1` (single isomer, unassigned), the AC50 is more than 1000 nM.

As for `COc1cc(-c2cc(C(=O)N3CCC(C(=O)NCc4cnccn4)CC3)n[nH]2)c(Cl)cn1` [1-[5-(5-chloro-2-methoxypyridin-4-yl)-1H-pyrazole-3-carbonyl]-N-[(pyrazin-2-yl)methyl]piperidine-4-carboxamide], the AC50 was more than 1000 nM.

Consider `COc1cc(-c2cc(C(=O)N3CCC(C(=O)NCC4(C)CCOC4)CC3)n[nH]2)c(Cl)cn1` (centres unmarked) [1-[5-(5-chloro-2-methoxypyridin-4-yl)-1H-pyrazole-3-carbonyl]-N-[(3-methyloxolan-3-yl)methyl]piperidine-4-carboxamide], for which the AC50 is more than 1000 nM.

Turning to `COc1cc(-c2cc(C(=O)N3CCC(C(=O)NC45COC(C)(C4)C5)CC3)n[nH]2)c(Cl)cn1`, the AC50 is more than 1000 nM.

With `COc1cc(-c2cc(C(=O)N3CCC(C(=O)NCC4(C)OCCO4)CC3)n[nH]2)c(Cl)cn1` [1-[5-(5-chloro-2-methoxypyridin-4-yl)-1H-pyrazole-3-carbonyl]-N-[(2-methyl-1,3-dioxolan-2-yl)methyl]piperidine-4-carboxamide], the AC50 is more than 1000 nM.

Regarding `COc1cc(-c2cc(C(=O)N3CCC(C(=O)Nc4ccc(CS(C)(=O)=O)cc4)CC3)n[nH]2)c(Cl)cn1` [1-[5-(5-chloro-2-methoxypyridin-4-yl)-1H-pyrazole-3-carbonyl]-N-[4-(methanesulfonylmethyl)phenyl]piperidine-4-carboxamide], the AC50 was more than 1000 nM.

In the case of `COc1ccc(CNC(=O)C2CCN(C(=O)c3cc(-c4cc(OC)ncc4Cl)[nH]n3)CC2)cn1` [1-[5-(5-chloro-2-methoxypyridin-4-yl)-1H-pyrazole-3-carbonyl]-N-[(6-methoxypyridin-3-yl)methyl]piperidine-4-carboxamide], the AC50 is more than 1000 nM.

On to `O=C(NCc1cccc(Cl)c1)C1CCN(C(=O)c2cc(-c3ccncc3)[nH]n2)CC1` [N-[(3-chlorophenyl)methyl]-1-[5-(pyridin-4-yl)-1H-pyrazole-3-carbonyl]piperidine-4-carboxamide], for which the AC50 was more than 1000 nM.

Turning to `COc1cc(-c2cc(C(=O)N3CCC(C(=O)N(C)C4CCC(C)CC4)CC3)n[nH]2)c(Cl)cn1` (centres unmarked) [1-[5-(5-chloro-2-methoxypyridin-4-yl)-1H-pyrazole-3-carbonyl]-N-methyl-N-(4-methylcyclohexyl)piperidine-4-carboxamide], the AC50 was more than 1000 nM.

For `O=C(NCc1ccc(Cl)cc1)C1CCN(C(=O)c2cc(-c3cccnc3)[nH]n2)CC1` [N-[(4-chlorophenyl)methyl]-1-[5-(pyridin-3-yl)-1H-pyrazole-3-carbonyl]piperidine-4-carboxamide], the half-maximal activity concentration (AC50) was more than 1000 nM.

With `O=C(c1cc(-c2ccncc2)[nH]n1)N1CCC(C(=O)N2CC[C@@H](O)C2)CC1` [(3R)-1-{1-[5-(pyridin-4-yl)-1H-pyrazole-3-carbonyl]piperidine-4-carbonyl}pyrrolidin-3-ol], the AC50 was more than 1000 nM.

As for `COc1cc(-c2cc(C(=O)N3CCC(C(=O)NCc4nc(C)c(C)s4)CC3)n[nH]2)c(Cl)cn1` [1-[5-(5-chloro-2-methoxypyridin-4-yl)-1H-pyrazole-3-carbonyl]-N-[(4,5-dimethyl-1,3-thiazol-2-yl)methyl]piperidine-4-carboxamide], the half-maximal activity concentration (AC50) is more than 1000 nM.

Consider `CC1CCC(NC(=O)C2CCN(C(=O)c3cc(-c4ccncc4)[nH]n3)CC2)CC1` (centres unmarked) [N-(4-methylcyclohexyl)-1-[5-(pyridin-4-yl)-1H-pyrazole-3-carbonyl]piperidine-4-carboxamide], for which the AC50 is more than 1000 nM.

Turning to `COc1cc(-c2cc(C(=O)N3CCC(C(=O)NCc4cc(C)ccn4)CC3)n[nH]2)c(Cl)cn1` [1-[5-(5-chloro-2-methoxypyridin-4-yl)-1H-pyrazole-3-carbonyl]-N-[(4-methylpyridine-2-yl)methyl]piperidine-4-carboxamide], the AC50 was more than 1000 nM.

As to `CC1(NC(=O)C2CCN(C(=O)c3cc(-c4ccncc4)[nH]n3)CC2)CCOCC1` [N-(4-methyloxan-4-yl)-1-[5-(pyridin-4-yl)-1H-pyrazole-3-carbonyl]piperidine-4-carboxamide], the AC50 is more than 1000 nM.

`COc1cc(-c2cc(C(=O)N3CCC(C(=O)NCc4ccc(=O)[nH]c4)CC3)n[nH]2)c(Cl)cn1` [1-[5-(5-chloro-2-methoxypyridin-4-yl)-1H-pyrazole-3-carbonyl]-N-[(6-oxo-1,6-dihydropyridin-3-yl)methyl]piperidine-4-carboxamide]: the AC50 is more than 1000 nM.

`COc1cc(-c2cc(C(=O)N3CC[C@@]4(C(=O)NCc5cccc(Cl)c5)C[C@@H]34)n[nH]2)c(Cl)cn1` (relative stereo) [rel-(1R,5R)-2-[5-(5-chloro-2-methoxypyridin-4-yl)-1H-pyrazole-3-carbonyl]-N-[(3-chlorophenyl)methyl]-2-azabicyclo[3.1.0]hexane-5-carboxamide]: the concentration at half-maximal activity (AC50) was more than 1000 nM.

With `O=C(Nc1ncco1)C1CCN(C(=O)c2cc(-c3ccncc3)[nH]n2)CC1` [N-(1,3-oxazol-2-yl)-1-[5-(pyridin-4-yl)-1H-pyrazole-3-carbonyl]piperidine-4-carboxamide], the half-maximal activity concentration (AC50) was more than 1000 nM.

Take `O=C(NC1CCC(c2ccccc2)CC1)C1CCN(C(=O)c2cc(-c3ccncc3)[nH]n2)CC1` (centres unmarked) [N-(4-phenylcyclohexyl)-1-[5-(pyridin-4-yl)-1H-pyrazole-3-carbonyl]piperidine-4-carboxamide]: the concentration at half-maximal activity (AC50) was more than 1000 nM.

As to `COc1cc(-c2cc(C(=O)N3CCC(C(=O)NCc4cccc(C)n4)CC3)n[nH]2)c(Cl)cn1` [1-[5-(5-chloro-2-methoxypyridin-4-yl)-1H-pyrazole-3-carbonyl]-N-[(6-methylpyridin-2-yl)methyl]piperidine-4-carboxamide], the concentration at half-maximal activity (AC50) is more than 1000 nM.

`COc1cc(-c2cc(C(=O)N3CCC(C(=O)NC4CCN(Cc5ccccc5)C4)CC3)n[nH]2)c(Cl)cn1` (centres unmarked) [N-(1-benzylpyrrolidin-3-yl)-1-[5-(5-chloro-2-methoxypyridin-4-yl)-1H-pyrazole-3-carbonyl]piperidine-4-carboxamide]: the AC50 was more than 1000 nM.

Take `COc1cc(-c2cc(C(=O)N3CCC(C(=O)NC4CC(F)(F)C4)CC3)n[nH]2)c(Cl)cn1` [1-[5-(5-chloro-2-methoxypyridin-4-yl)-1H-pyrazole-3-carbonyl]-N-(3,3-difluorocyclobutyl)piperidine-4-carboxamide]: the AC50 was more than 1000 nM.

With `O=C(N[C@H]1CC[C@@](O)(C(F)(F)F)CC1)C1CCN(C(=O)c2cc(-c3cc(OC4COC4)ncc3F)[nH]n2)C2(CC2)C1` (some centres unmarked), the AC50 was more than 1000 nM.

With `CCC1CCC(NC(=O)C2CCN(C(=O)c3cc(-c4ccncc4)[nH]n3)CC2)CC1` (centres unmarked), the AC50 is more than 1000 nM.

As for `O=C(Nc1ccccc1)C1CCN(C(=O)c2cc(-c3ccncc3)[nH]n2)CC1` [N-phenyl-1-[5-(pyridin-4-yl)-1H-pyrazole-3-carbonyl]piperidine-4-carboxamide], the AC50 is more than 1000 nM.

`COc1c(Cl)cccc1CNC(=O)C1CCN(C(=O)c2cc(-c3ccncc3)[nH]n2)CC1` [N-[(3-chloro-2-methoxyphenyl)methyl]-1-[5-(pyridin-4-yl)-1H-pyrazole-3-carbonyl]piperidine-4-carboxamide]: the AC50 was more than 1000 nM.

As for `COc1cc(-c2cc(C(=O)N3CCC(C(=O)N[C@H]4CC[C@](O)(C(F)(F)F)CC4)CC3)n[nH]2)c(Cl)cn1`, the AC50 was more than 1000 nM.

As for `COc1cc(-c2cc(C(=O)N3CCC(C(=O)O)CC3)n[nH]2)c(Cl)cn1` [1-[5-(5-chloro-2-methoxypyridin-4-yl)-1H-pyrazole-3-carbonyl]piperidine-4-carboxylic acid], the concentration at half-maximal activity (AC50) is more than 1000 nM.

Still in this assay, the particulars now being: TR-FRET AC50, Co-R peptide recruitment to PPARγ.
`COc1cc(-c2cc(C(=O)N3CCC(C(=O)NC(C)(C)c4ccccc4)CC3)n[nH]2)ccn1` [1-[5-(2-methoxypyridin-4-yl)-1H-pyrazole-3-carbonyl]-N-(2-phenylpropan-2-yl)piperidine-4-carboxamide]: the AC50 was more than 1000 nM.
